Values after ≈ are worked out from the molar mass of the structure shown. Like-named read-outs stand apart in the source and are kept apart here.
Columns and labels:
Clostridium difficile = assay: In vitro MIC, standard microtiter assay; format: cell-based; conditions: Table A
From the text: (§1) In vitro minimum inhibitory concentrations (MIC) of the AAD-609 complex and of Factors A, B, CC2 and D, using standard microtiter assay procedures, against a number of microorganisms are reported in Table A, which follows.

Escherichia coli 12140 = assay: In vitro MIC, standard microtiter assay; format: cell-based; conditions: Table A
From the text: as §1

S. epidermidis 2265 = assay: In vitro MIC, standard microtiter assay; format: cell-based; conditions: Table A
From the text: as §1

S. epidermidis 2479 [1] = assay: In vitro MIC, standard microtiter assay; format: cell-based
From the text: as §1

S. epidermidis 2683 = assay: In vitro MIC, standard microtiter assay; format: cell-based; conditions: Table A
From the text: as §1

[2] = system: S. epidermidis 651 (methicillin resistant strain); assay: In vitro MIC, standard microtiter assay; format: cell-based; conditions: methicillin resistant strain
From the text: as §1

[3] = system: Salmonella gallinarum BC-595; assay: In vitro MIC, standard microtiter assay; format: cell-based; conditions: Table A
From the text: as §1

[4] = system: Staphylococcus aureus HH127; assay: In vitro MIC, standard microtiter assay; format: cell-based
From the text: as §1

[5] = system: Streptococcus faecalis 657; assay: In vitro MIC, standard microtiter assay; format: cell-based; conditions: Table A
From the text: as §1

S. aureus 209P = assay: In vitro MIC, standard microtiter assay; format: cell-based, Staphylococcus aureus; conditions: Table A
From the text: as §1

S. aureus 674 = assay: In vitro MIC, standard microtiter assay; format: cell-based, Staphylococcus aureus; conditions: Table A
From the text: as §1

S. aureus 675 = assay: In vitro MIC, standard microtiter assay; format: cell-based, Staphylococcus aureus; conditions: Table A
From the text: as §1

[6] = system: S. aureus 910 (methicillin resistant strain); assay: In vitro MIC, standard microtiter assay; format: cell-based, Staphylococcus aureus; conditions: Table A, methicillin resistant strain
From the text: as §1

S. faecalis 34358 [7] = assay: In vitro MIC, standard microtiter assay; format: cell-based, Streptococcus faecalis
From the text: as §1

[8] = system: S. aureus 2620 (methicillin resistant strain); assay: MIC; format: cell-based; conditions: Table B, methicillin resistant strain
From the text: as §1

[9] = system: S. aureus 2620 (methicillin resistant strain); assay: Mouse protection test; format: in vivo; conditions: mice dosed 1 and 5 h post infection s.c.; methicillin resistant strain
From the text: (§2) in mouse protection tests^1
(§3) ^1 Mice dosed 1 and 5 H post infection s.c.; ED50, mg/kg.

S. aureus HH127 = assay: Mouse protection test; format: in vivo; conditions: mice dosed 1 and 5 h post infection s.c.
From the text: as §2, §3

S. epidermidis 2479 [10] = assay: Mouse protection test; format: in vivo; conditions: mice dosed 1 and 5 h post infection s.c.
From the text: as §2, §3

[11] = system: S. epidermidis 651 (methicillin resistant strain); assay: Mouse protection test; format: in vivo; conditions: mice dosed 1 and 5 h post infection s.c.; methicillin resistant strain
From the text: as §2, §3

S. faecalis 34358 [12] = assay: Mouse protection test; format: in vivo; conditions: mice dosed 1 and 5 h post infection s.c.
From the text: as §2, §3

[13] = pKa by potentiometric titration; conditions: 30:70 acetonitrile:water, apparent values
[14] = system: rumen fermentation (strained rumen fluid); assay: Rumen in vitro model; design: species or system steer; conditions: for AAN (alpha amino nitrogen) / AMO (ammonia nitrogen) / LYS (lysine): 6 h; for % PR (percent propionate) / ACE (acetate) / BUT (butyrate) / ETOH (ethanol) / IBU (isobutyrate) / IVA (isovalerate) / PRO (propionate) / TOTAL (total volatile fatty acids) / VAL: 24 h
Protocol: The AAD-609 antibiotics were characterized in a rumen in vitro model to assess their potential as feed additives for ruminants. […] Specifically, strained rumen fluid (10 ml) obtained from a fistulated steer receiving a roughage ration, was mixed with 10 ml of nutrient broth (20 mg casein hydrolysate, 100 mg maltose, 15 mg urea, 400 mg solka floc (cellulose), 100 mg cellobiose and 100 mg starch) and with a selected growth promotant and incubated at 39° C., with oscillation, for 24 hours. […] Measurement of AMO, LYS and AAN was done with a sample taken from the incubation flask after 6 hours.

[15] = system: mixed intestinal microflora (cecum fluid); assay: Swine in vitro model; conditions: one level, up to 166.67 ppm; 4-5 h
In short: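 Cecum fluid from swine on normal rations, mixed 1:1 with nutrient broth (casein hydrolysate, maltose, urea, lysine, cellobiose), incubated with up to 166.67 ppm growth promotant at 39° C with oscillation for about 4-5 h. Glucose, volatile fatty acids, L-lactate and ethanol measured; values given as percentage of control.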

Pharmacokinetics in mice = conditions: mice
[16] = comparators, source not given; cited from earlier work
[17] = AAD-216A averaged previous results
[18] = first phenolic OH, AAD-216A averaged previous results
[19] = second phenolic OH, AAD-216A averaged previous results
[20] = third phenolic OH, AAD-216A averaged previous results
[21] = Staphylococcus aureus, read-out: MIC

CNC1C(=O)NC2C(=O)NC(C(=O)NC3C(=O)NC4C(=O)NC(C(=O)NC(C(=O)O)c5cc(O)cc(OC6OC(CO)C(O)C(O)C6O)c5-c5cc4ccc5O)C(O)c4cc(Cl)c(c(Cl)c4)Oc4cc3cc(c4OC3OC(CO)C(O)C(O)C3NC(=O)CCCCCCCCC(C)C)Oc3ccc(cc3Cl)C2O)c2cc(cc(O)c2Cl)Oc2cc1ccc2O (stereo not drawn) [AAD-609 C]
MIC (Clostridium difficile): 1 µg/mL (≈ 0.554 µM)
MIC (Escherichia coli 12140): > 100 µg/mL
MIC (S. epidermidis 2265): 25 µg/mL (≈ 13.9 µM)
MIC (S. epidermidis 2479 [1]; Table A): 12.5 µg/mL (≈ 6.93 µM)
MIC (S. epidermidis 2479 [1]; Table B): 12.5 µg/mL (≈ 6.93 µM)
MIC (S. epidermidis 2683): 25 µg/mL (≈ 13.9 µM)
MIC ([2]; Table A): 25 µg/mL (≈ 13.9 µM)
MIC ([2]; Table B): 25 µg/mL (≈ 13.9 µM)
MIC [3]: > 100 µg/mL
MIC ([4]; Table A): 1.6 µg/mL (≈ 0.887 µM)
MIC ([4]; Table B): 1.6 µg/mL (≈ 0.887 µM)
MIC [5]: 0.2 µg/mL (≈ 0.111 µM)
MIC (S. aureus 209P): 0.8 µg/mL (≈ 0.444 µM)
MIC (S. aureus 674): 1.6 µg/mL (≈ 0.887 µM)
MIC (S. aureus 675): 6.3 µg/mL (≈ 3.49 µM)
MIC [6]: 1.6 µg/mL (≈ 0.887 µM)
MIC (S. faecalis 34358 [7]; Table A): 0.2 µg/mL (≈ 0.111 µM)
MIC (S. faecalis 34358 [7]; Table B): 0.2 µg/mL (≈ 0.111 µM)
MIC [8]: 4 µg/mL (≈ 2.22 µM)
ED50 [9]: 8.4 mg/kg
ED50 (S. aureus HH127): 8.5 mg/kg
ED50 (S. epidermidis 2479 [10]): 22 mg/kg
ED50 [11]: 50 mg/kg
ED50 (S. faecalis 34358 [12]): 50 mg/kg
pKa (A) carboxyl on aglycone [13, 17]: 3.6
pKa (C) amino group on aglycone [13, 17]: 7.2
pKa (D) phenolic OH [13, 18]: 8.4
pKa (D) phenolic OH ([13]; fourth phenolic OH): 11.6
pKa (D) phenolic OH [13, 19]: 9.9
pKa (D) phenolic OH [13, 20]: 10.6

CCCCCCCCCC(=O)NC1C(Oc2c3cc4cc2Oc2c(Cl)cc(cc2Cl)C(O)C2NC(=O)C(NC(=O)C4NC(=O)C4NC(=O)C(NC(=O)C(NC)c5ccc(O)c(c5)Oc5cc(O)c(Cl)c4c5)C(O)c4ccc(c(Cl)c4)O3)c3ccc(O)c(c3)-c3c(OC4OC(CO)C(O)C(O)C4O)cc(O)cc3C(C(=O)O)NC2=O)OC(C(=O)O)C(O)C1O (stereo not drawn) [AAD-216 A]
MIC (Clostridium difficile; Clostridioides difficile, read-out: MIC): 0.25 µg/mL (≈ 0.14 µM)
MIC (Escherichia coli 12140; Escherichia coli, 12140, read-out: MIC): > 100 µg/mL
MIC (S. epidermidis 2265; Staphylococcus epidermidis, 2265, read-out: MIC): 50 µg/mL (≈ 27.9 µM)
MIC (S. epidermidis 2479 [1]; Staphylococcus epidermidis, 2479, Table A, read-out: MIC): 25 µg/mL (≈ 14 µM)
MIC (S. epidermidis 2479 [1]; Table B): 25 µg/mL (≈ 14 µM)
MIC (S. epidermidis 2683; Staphylococcus epidermidis, 2683, read-out: MIC): 50 µg/mL (≈ 27.9 µM)
MIC ([2]; Staphylococcus epidermidis, Table A, read-out: MIC): 100 µg/mL (≈ 55.9 µM)
MIC ([2]; Table B): 100 µg/mL (≈ 55.9 µM)
MIC ([3]; Salmonella enterica, GALLINARUM, read-out: MIC): > 100 µg/mL
MIC ([4]; Staphylococcus aureus, HH127, Table A, read-out: MIC): 3.1 µg/mL (≈ 1.73 µM)
MIC ([4]; Table B): 3.1 µg/mL (≈ 1.73 µM)
MIC ([5]; Enterococcus faecalis, 657, read-out: MIC): 0.8 µg/mL (≈ 0.447 µM)
MIC (S. aureus 209P; Staphylococcus aureus, 209P, read-out: MIC): 0.8 µg/mL (≈ 0.447 µM)
MIC (S. aureus 674; Staphylococcus aureus, 674, read-out: MIC): 3.1 µg/mL (≈ 1.73 µM)
MIC (S. aureus 675; Staphylococcus aureus, 675, read-out: MIC): 12.5 µg/mL (≈ 6.99 µM)
MIC [6, 21]: 3.1 µg/mL (≈ 1.73 µM)
MIC (S. faecalis 34358 [7]; Enterococcus faecalis, 34358, Table A, read-out: MIC): 0.4 µg/mL (≈ 0.224 µM)
MIC (S. faecalis 34358 [7]; Table B): 0.4 µg/mL (≈ 0.224 µM)
MIC [8, 21]: 4 µg/mL (≈ 2.24 µM)
AAN (alpha amino nitrogen) ([14]; 0.50 ppm): 76 % of control
AMO (ammonia nitrogen) ([14]; 0.50 ppm): 102 % of control
LYS (lysine) ([14]; 0.50 ppm): 108 % of control
% PR (percent propionate) ([14]; 0.50 ppm): 106 % of control
ACE (acetate) ([14]; 0.50 ppm): 96 % of control
BUT (butyrate) ([14]; 0.50 ppm): 100 % of control
ETOH (ethanol) ([14]; 0.50 ppm): 0 % of control
IBU (isobutyrate) ([14]; 0.50 ppm): 125 % of control
IVA (isovalerate) ([14]; 0.50 ppm): 124 % of control
PRO (propionate) ([14]; 0.50 ppm): 107 % of control
TOTAL (total volatile fatty acids) ([14]; 0.50 ppm): 101 % of control
AAN (alpha amino nitrogen) ([14]; 5.00 ppm): 153 % of control
AMO (ammonia nitrogen) ([14]; 5.00 ppm): 101 % of control
LYS (lysine) ([14]; 5.00 ppm): 144 % of control
% PR (percent propionate) ([14]; 5.00 ppm): 148 % of control
ACE (acetate) ([14]; 5.00 ppm): 105 % of control
BUT (butyrate) ([14]; 5.00 ppm): 81 % of control
ETOH (ethanol) ([14]; 5.00 ppm): 0 % of control
IBU (isobutyrate) ([14]; 5.00 ppm): 75 % of control
IVA (isovalerate) ([14]; 5.00 ppm): 48 % of control
PRO (propionate) ([14]; 5.00 ppm): 153 % of control
TOTAL (total volatile fatty acids) ([14]; 5.00 ppm): 103 % of control
VAL ([14]; 5.00 ppm): 56 % of control
AAN (alpha amino nitrogen) ([14]; 50.00 ppm): 195 % of control
AMO (ammonia nitrogen) ([14]; 50.00 ppm): 109 % of control
LYS (lysine) ([14]; 50.00 ppm): 168 % of control
% PR (percent propionate) ([14]; 50.00 ppm): 140 % of control
ACE (acetate) ([14]; 50.00 ppm): 93 % of control
BUT (butyrate) ([14]; 50.00 ppm): 87 % of control
ETOH (ethanol) ([14]; 50.00 ppm): 0 % of control
IBU (isobutyrate) ([14]; 50.00 ppm): 112 % of control
IVA (isovalerate) ([14]; 50.00 ppm): 98 % of control
PRO (propionate) ([14]; 50.00 ppm): 138 % of control
TOTAL (total volatile fatty acids) ([14]; 50.00 ppm): 98 % of control
VAL ([14]; 50.00 ppm): 26 % of control
% PR (percent propionate) [15]: 117 % of control
ACE (acetate) [15]: 200 % of control
BUT (butyrate) [15]: 147 % of control
ETOH (ethanol) [15]: 167 % of control
GLU (glucose) [15]: 180 % of control
IBU (isobutyrate) [15]: 0 % of control
IVA (isovalerate) [15]: 0 % of control
LLA (L-lactate) [15]: 2 % of control
LYS (lysine) [15]: 35 % of control
PRO (propionate) [15]: 276 % of control
TOTAL (total volatile fatty acids) [15]: 236 % of control
VAL [15]: 0 % of control
Elimination half-life (Pharmacokinetics in mice): 3.77 h
Maximum serum concentration (Pharmacokinetics in mice): 121 µg/mL
pKa (A) carboxyl on aglycone [13, 17]: 3.0
pKa (B) carboxyl on side chain [13, 17]: 4.9
pKa (C) amino group on aglycone [13, 17]: 7.4
pKa (D) phenolic OH [13, 18]: 8.4
pKa (D) phenolic OH [13, 19]: 10.0
pKa (D) phenolic OH [13, 20]: 10.3

ristocetin
Isoelectric point [16]: 8.4

Source: patent US4694069A, “Kibdelosporangium aridum SK&F-AAD-609” (SmithKline Beckman Corporation, priority 1985, dated 1987)
